Reference: US6852686B2, “Methods for ameliorating icthyosiform skin diseases” (The United States of America as represented by the …, priority 1999, dated 2005)

How the values were obtained:
TGase 1 [1] = molecular target: T1, TGase 1 (Homo sapiens, UniProt P22735); test: Lipid Z esterification of involucrin by TGase 1 on SLV; type: biochemical
T1 construct: Recombinant full-length human TGase 1 and TGase 3 enzymes were expressed in Sf9 cells by the BaculoGold system; made in house; host or cells: Sf9 insect cells, BaculoGold baculovirus system, pVL1392 vector
T1 sequence (P22735 1-817): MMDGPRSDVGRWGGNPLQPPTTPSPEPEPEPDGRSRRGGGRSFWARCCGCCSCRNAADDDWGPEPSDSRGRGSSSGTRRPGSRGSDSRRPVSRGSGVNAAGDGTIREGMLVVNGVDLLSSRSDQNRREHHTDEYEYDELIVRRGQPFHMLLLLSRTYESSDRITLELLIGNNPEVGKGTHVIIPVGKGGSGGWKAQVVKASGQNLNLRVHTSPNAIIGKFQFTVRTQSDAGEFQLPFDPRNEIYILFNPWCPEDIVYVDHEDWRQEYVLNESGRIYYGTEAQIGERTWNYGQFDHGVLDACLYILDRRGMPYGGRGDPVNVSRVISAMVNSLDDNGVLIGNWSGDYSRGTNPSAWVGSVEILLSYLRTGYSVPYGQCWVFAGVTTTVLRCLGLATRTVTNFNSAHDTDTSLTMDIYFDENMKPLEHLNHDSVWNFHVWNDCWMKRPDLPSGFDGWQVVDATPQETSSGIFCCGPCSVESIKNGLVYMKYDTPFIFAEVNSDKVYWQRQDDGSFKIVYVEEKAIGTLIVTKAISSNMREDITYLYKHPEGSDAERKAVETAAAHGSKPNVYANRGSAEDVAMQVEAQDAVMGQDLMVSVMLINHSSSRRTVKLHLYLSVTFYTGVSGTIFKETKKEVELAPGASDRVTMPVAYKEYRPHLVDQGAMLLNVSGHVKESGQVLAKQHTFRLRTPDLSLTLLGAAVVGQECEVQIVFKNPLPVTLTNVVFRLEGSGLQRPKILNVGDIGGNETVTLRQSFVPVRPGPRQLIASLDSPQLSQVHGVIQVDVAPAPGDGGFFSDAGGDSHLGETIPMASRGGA

TGase 1 [2] = molecular target: T1, TGase 1; test: as above; type: biochemical; remark: listed apart in the source
Method: A mixture of 54 mol % dimyristoyl-phosphatidylcholine, 15 mol % dipalmitoyl-phosphatidylserine, 30 mol % cholesterol (all from Sigma, St. Louis, Mo.) and 1 mol % lipid Z was made in chloroform: methanol (9:1). This solution was dried down, taken up in aqueous buffer and dispersed by sonication as before (Nemes et al., J. Biol. Chem., 274: in press (1999)). The SLV suspension was equipped with TGase 1 enzyme by incubation at 37° C. for 15 min prior to adding substrates.
The reactions were stopped by the addition of EDTA to 10 mM.
Following reaction, 0.1 ml 20% SDS in water was added to the samples and the mixture was vortexed. This mixture was precipitated and washed three times with acetone-triethylamine-acetic acid (90:5:5) to remove the SDS and the unbound lipids (Konigsberg, W. H. and L. Henderson, Meth. Enzymol., 91: 254-259 (1983), herein expressly incorporated by reference in its entirety). After further washing with acetone the pellet was dried under vacuum and redissolved in 50 mM Tris-HCl (pH 7.5). Resolubilized protein was digested for 16 h with 2 mol % modified trypsin (Boehringer Mannheim). Peptides were resolved on a 250×2 mm PrimesphereC4 HPLC column (Phenomenex) and separated using a gradient elution from 75% buffer A (0.1% TFA in water) to 75% buffer B (50% 2-propanol in acetonitrile) in 40 min. Under these conditions, lipo-peptides were retarded but free peptides elute with the solvent front (Marekov, L. N. and P. M. Steinert, J. Biol. Chem., 273: 17763-17770 (1998), herein expressly incorporated by reference in its entirety).
Amino acid analysis of hydrolyzed samples (5.7 N HCl at 110° C. for 24 h in vacuo) was used to routinely measure amounts of lipo-peptides. Aliquots of isolated lipo-peptide peaks were attached to a solid support for sequencing (Marekov, L. N. and P. M. Steinert, J. Biol. Chem., 273: 17763-17770 (1998), herein expressly incorporated by reference in its entirety). Saponification of lipo-peptides was done with 1 N KOH in 80% methanol for 2 h at 37° C., after which the solution was acidified, dried and peptides were recovered by HPLC on a C18 column.

[3] = 0.3 nmol involucrin/μmol lipid, 4 h reaction

In the case of `CCCCCCCCCCCCC/C=C/[C@@H](O)[C@H](CO)NC(=O)CCCCCCCCCCCCCCCOCCCCCCCCCCCCCCCCO` [lipid Z, N-[16-(16-hydroxyhexadecyl)oxypalmitoyl]-sphingosine], the “amount incorporated into SLV without interference with SLV stability or binding of involucrin and TGase 1” value (TGase 1 [1]) is reported as at most 25 mol %, the “KM of lipid Z incorporation into involucrin” value (TGase 1 [1]; rate linear up to 25 mol % lipid Z in SLV) is reported as over 100 mol % and the “maximum lipid ester formation for Gln 496” value (TGase 1 [2]; [3]) is reported as under 0.05 mol/mol. For the same molecule, the maximum lipid ester formation per mole of Gln residues 107, 118, 122, and 133 (TGase 1 [2]; [3]) was 0.1 to 0.3 mol/mol, the “incorporation rate into involucrin” value (TGase 1 [2]; SLV formulations with 1 mol % lipid Z) was 2.2±0.3 fmol of lipid Z/s and the “involucrin-lipid adduct formation by TGase 1 on SLV membranes” value (TGase 1 [2]; ceramide incorporated in SLV) was “formed saponifiable protein-lipid adducts”.
